Laboratory results from PMC8298602, “14-3-3-protein regulates Nedd4-2 by modulating interactions between HECT and WW domains” (Communications Biology, 2021).

Columns and labels:
[1] = tested on: all human 14-3-3 protein isoforms; assay: fluorescence polarization (FP), all seven 14-3-3 isoforms (results in words); assay type: binding; conditions: 50 nM FITC-labelled peptide, 14-3-3 isoforms from 80 μM
Procedure: Fig. 4 14-3-3 isoform binding specificity of Nedd4-2 phosphomotifs. Binding of FITC-labeled phosphopeptides with 14-3-3 binding motifs of Nedd4-2 (pSer^342, pThr^367 or pSer^448) to all human 14-3-3 isoforms was characterized by FP titrations. The binding affinities of these peptides were determined by fitting FP data to a one-site binding model. The corresponding sequences of these peptides are shown at the top. Background polarization was subtracted from all values. Results are expressed as mean ± SD (n = 3). Error bars are not visible if they are smaller than the size of the symbol.
The FP assay was performed using a CLARIOstar microplate reader (BMG Labtech, […]) on 384-well black low-volume flat-bottom plates (Corning, New York, USA) in a buffer containing 10 mM HEPES (pH 7.4), 150 mM NaCl, 0.1% (v/v) Tween 20 and 0.1% (w/v) BSA. […] The excitation and emission wavelengths were 482 nm and 530 nm, respectively. The KD values were determined as the mean of three independent measurements using GraphPad Prism version 8.0.1 for Windows, GraphPad Software, La Jolla California USA, www.graphpad.com.
(§1) Results from the FP assay (Fig. 4) and immunoblot (Supplementary Fig. S1) are represented as means ± SD from three replicates as indicated in the figure legend. Statistical analysis for the data from immunoblot were performed using Graph-Pad Prism 8.4. Student’s t-test was used for comparison of relative changes of samples with and without 14-3-3η at selected timepoints (ns, non-significant P > 0.05; *, P < 0.05).

[2] = tested on: Nedd4-2^186–975; assay: auto-ubiquitination (Ub chain formation) assay, immunoblot; assay type: biochemical, human; conditions: for Difference (no 14-3-3 minus with 14-3-3): normalized means; for effect on auto-ubiquitination of Nedd4-2^186–975 (in words): Nedd4-2^186–975 with 14-3-3, 1:2 molar ratio, 30 °C
Procedure: For in vitro ubiquitination assays, 5 µg of human Ub, 50 ng of E1 (mouse Uba1), 200 ng of E2 (mouse Ube2d2) and 500 ng of E3 (phosphorylated Nedd4-2^186–975) were incubated in 30 µl of the reaction mixture in a buffer containing 50 mM Tris pH 7.5, 2 mM ATP, 5 mM MgCl2 and 2 mM DTT and incubated for 5, 10 and 15 min at 30 °C. The reactions were stopped by adding 5 × SDS-PAGE loading buffer (250 mM Tris pH 6.8, 50% glycerol, 500 mM DTT and 10% SDS) and incubating at 95 °C for 3 minutes to denaturate the samples. For reactions with 14-3-3η, Nedd4-2^186–975 was mixed with 14-3-3η in a 1:2 molar ratio and incubated for 30 minutes on ice before starting the reaction. In addition, 20 µl of reaction was separated by conventional SDS-PAGE on a 10% acrylamide gel and electro-blotted against a PVDF membrane in 20 mM Tris pH 7.5, 154 mM glycin and 10% methanol buffer overnight at 4 °C. Rabbit anti-Ub polyclonal antibody (Enzo) and anti-rabbit IgG, HRP-linked Antibody (Cell Signaling Technology) were used to visualize the transferred polyubiquitin chains. Chemiluminescence was induced by ECL and detected using Fusion Solo S (Vilber). The detected bands of E3-Ub were quantitated using the Image Lab software (Bio-Rad).
as §1
Supplementary Fig. S1. 14-3-3 slows down the auto-ubiquitination of Nedd4- 2186-975. a Purity and integrity of the samples used in the Ub chain formation assay. The samples were resolved by 10% Tris/Glycine SDS-PAGE and stained with Coomassie G-250. b Ubiquitin (Ub) chain formation assay with and without 14-3-3ε and the representative immunoblot of Ub. Black rectangles denote the borders of the sample zones that were quantified. The presence of ubiquitinated Nedd4-2 in the quantified zones was confirmed by LC-MS analysis. c Relative abundances of ubiquitinated Nedd4-2186-975 with and without 14-3-3η based on the immunoblot of Ub. Error bars represent the standard deviation of three independent experiments. Results show the data distribution. Asterisks represent significant differences according to unpaired Student’s t-tests comparing relative change between samples without and with 14-3-3ε at selected timepoints (ns, non-significant P > 0.05; *, P < 0.05).
(1 picture or pasted object on this page, not shown here)

In the case of FITC-LRSCpSVTDAV [pep-S448], the “binding to 14-3-3 isoforms (in words)” value [1] is reported as “binds to all 14-3-3 isoforms in the low micromolar range”.

With FITC-PRSLpSSPTVT [pep-S342] the “binding to 14-3-3 isoforms (in words)” value [1] was “measurable binding affinity only to 14-3-3σ”.

With “14-3-3η: 14-3-3 protein eta isoform, stable dimer, known Nedd4-2 binding partner” the “Difference (no 14-3-3 minus with 14-3-3)” value ([2]; 5 min) was 0.1757, the “relative abundance of ubiquitinated Nedd4-2^186–975” value (shortened to “relative abundance”) ([2]; 5 min, with 14-3-3, mean of n = 3, normalized (mean without 14-3-3 = 1), listed as 14-3-3) was 0.8243 and the “relative abundance” value ([2]; 5 min, with 14-3-3, mean of n = 3, normalized (mean without 14-3-3 = 1), listed as 1433) was 0.8243. For the same substance, the “abundance of ubiquitinated Nedd4-2^186–975” value ([2]; 5 min, with 14-3-3, mean of n = 3, not normalized) was 1.509, the “relative abundance” value ([2]; 5 min, with 14-3-3, replicate 1, normalized (mean without 14-3-3 = 1)) was 0.8139 and the “abundance of ubiquitinated Nedd4-2^186–975” value ([2]; 5 min, with 14-3-3, replicate 1, not normalized) was 1.49. For the same substance, the “relative abundance” value ([2]; 5 min, with 14-3-3, replicate 2, normalized (mean without 14-3-3 = 1)) was 1.075, the “abundance of ubiquitinated Nedd4-2^186–975” value ([2]; 5 min, with 14-3-3, replicate 2, not normalized) was 1.967 and the “relative abundance” value ([2]; 5 min, with 14-3-3, replicate 3, normalized (mean without 14-3-3 = 1)) was 0.5843. For the same substance, the “abundance of ubiquitinated Nedd4-2^186–975” value ([2]; 5 min, with 14-3-3, replicate 3, not normalized) was 1.069, the “Difference (no 14-3-3 minus with 14-3-3)” value ([2]; 10 min) was 0.2602 and the “relative abundance” value ([2]; 10 min, with 14-3-3, mean of n = 3, normalized (mean without 14-3-3 = 1), listed as 14-3-3) was 0.7398. For the same substance, the “relative abundance” value ([2]; 10 min, with 14-3-3, mean of n = 3, normalized (mean without 14-3-3 = 1), listed as 1433) was 0.7398, the “abundance of ubiquitinated Nedd4-2^186–975” value ([2]; 10 min, with 14-3-3, mean of n = 3, not normalized) was 2.393 and the “relative abundance” value ([2]; 10 min, with 14-3-3, replicate 1, normalized (mean without 14-3-3 = 1)) was 0.713. The “abundance of ubiquitinated Nedd4-2^186–975” value ([2]; 10 min, with 14-3-3, replicate 1, not normalized) was 2.306, the “relative abundance” value ([2]; 10 min, with 14-3-3, replicate 2, normalized (mean without 14-3-3 = 1)) was 0.8702 and the “abundance of ubiquitinated Nedd4-2^186–975” value ([2]; 10 min, with 14-3-3, replicate 2, not normalized) was 2.814. For the same substance, the “relative abundance” value ([2]; 10 min, with 14-3-3, replicate 3, normalized (mean without 14-3-3 = 1)) was 0.6363, the “abundance of ubiquitinated Nedd4-2^186–975” value ([2]; 10 min, with 14-3-3, replicate 3, not normalized) was 2.058 and the “Difference (no 14-3-3 minus with 14-3-3)” value ([2]; 15 min) was 0.2943. For the same substance, the “relative abundance” value ([2]; 15 min, with 14-3-3, mean of n = 3, normalized (mean without 14-3-3 = 1), listed as 14-3-3) was 0.7057, the “relative abundance” value ([2]; 15 min, with 14-3-3, mean of n = 3, normalized (mean without 14-3-3 = 1), listed as 1433) was 0.7057 and the “abundance of ubiquitinated Nedd4-2^186–975” value ([2]; 15 min, with 14-3-3, mean of n = 3, not normalized) was 3.153. The “relative abundance” value ([2]; 15 min, with 14-3-3, replicate 1, normalized (mean without 14-3-3 = 1)) was 0.7206, the “abundance of ubiquitinated Nedd4-2^186–975” value ([2]; 15 min, with 14-3-3, replicate 1, not normalized) was 3.22 and the “relative abundance” value ([2]; 15 min, with 14-3-3, replicate 2, normalized (mean without 14-3-3 = 1)) was 0.776. The “abundance of ubiquitinated Nedd4-2^186–975” value ([2]; 15 min, with 14-3-3, replicate 2, not normalized) was 3.467, the “relative abundance” value ([2]; 15 min, with 14-3-3, replicate 3, normalized (mean without 14-3-3 = 1)) was 0.6205 and the “abundance of ubiquitinated Nedd4-2^186–975” value ([2]; 15 min, with 14-3-3, replicate 3, not normalized) was 2.772. For the same substance, the “effect on auto-ubiquitination of Nedd4-2^186–975 (in words)” value [2] was “reduced” and the “effect on auto-ubiquitination of Nedd4-2^186–975 (in words)” value ([2]; listed as 14-3-3) was “slows down”.

For FITC-ARSSpTVTGGE [pep-T367], the “binding to 14-3-3 isoforms (in words)” value [1] was “very weak, to all 14-3-3 isoforms except ε and σ”.
